Usually EC50 stands for the concentration that produces a half-maximal response. What is called Ki is a dissociation constant, usually derived from enzyme kinetics or from competition with a known ligand. What is called IC50 is the concentration at which inhibition is half-maximal.

Assay [1] has as its system MM1.S (multiple myeloma) cells. Description: In vitro cell proliferation, MM1.S multiple myeloma cells.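 Note: cells cultured in RPMI with 10% FBS and 2 mM L-Glutamine, seeded in 384-well plates, exposed to compound, cell viability measured by luminescence after CellTiter-Glo addition.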 The format is cell-based. The following applies: MM1.S cells, 72 hours, CELL TITER GLO, read-out: Prolif MM1S ATP (EC50).
Procedure: (§1) BaF3 parental line was obtained from the DSMZ repository. […] Media for BaF3 parental line contained RPMI, 10% FBS, 2 mM L-Glutamine, 2 ng/mL mIL-3. Media for BaF3 PIM1 & 2 lines contained RPMI, 10% FBS, 2 mM L-Glutamine, 250 μg/mL. Media for MM1.S (multiple myeloma cells) line contained RPMI, 10% FBS, 2 mM L-Glutamine.
(§2) BaF3, a murine interleukin-3 dependent pro-B cell line, parental cells, BaF3 PIM1 cells, BaF3 PIM2 cells, and MM1.S (multiple myeloma) cells were seeded at 2 k/well, 5 k/well, 5 k/well, and 10 k/well respectively, in a 384-well plate, at 45 μL/well. Test compound was added at 5 μL/well. BaF3 cells (parental and transfected) were incubated overnight, while MM1.S cells were incubated for 72 hours at 37° C., 5% CO2. CELL TITER GLO® Reagent (Promega) was added at 50 μL/well, the plates were incubated for 30 minutes, and their luminescence read on an HT Analyst. IC50/EC50 values for the test compound were calculated.
For the next assay, the target named is PIM1 (Homo sapiens (Human), UniProt P11309). Kind of assay: biochemical. The format is biochemical. The following applies: 20 pM PIM1, 1 μM FAM-peptide, 10 μM ATP, 90 minutes at room temperature; read-out: PIM1 LC3K (KI).
Another assay relates to BaF3 PIM1 cells. Description: In vitro cell proliferation, BaF3 transfected with PIM1.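 Note: murine IL-3-dependent pro-B BaF3 cells transfected with PIM1, compound exposure overnight at 37 °C under 5% CO2, viability read as luminescence.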 The format is cell-based, murine.
The next assay concerns BaF3 parental cells. Kind of assay: In vitro cell proliferation, BaF3 parental line + IL3.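 Note: BaF3 parental cells are murine IL-3 dependent pro-B cells grown with 2 ng/mL mIL-3, 384-well format, viability read by luminescence.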 The format is cell-based, murine. Particulars: Mus musculus, BaF3, BaF3 parental, mIL-3, incubated overnight, CELL TITER GLO; read-out: Prolif BaF3 IL3 (IC50). Background: ATP-based viability assays read luminescence as a measure of living cells.
Setting [2] is: Mus musculus, BaF3, read-out: Prolif BaF3 PIM1 (IC50), BaF3 PIM1 cells, incubated overnight, CELL TITER GLO.

Read-outs that look alike come from different tables or passages of the source.

Chain of PIM1 (P11309 whole entry): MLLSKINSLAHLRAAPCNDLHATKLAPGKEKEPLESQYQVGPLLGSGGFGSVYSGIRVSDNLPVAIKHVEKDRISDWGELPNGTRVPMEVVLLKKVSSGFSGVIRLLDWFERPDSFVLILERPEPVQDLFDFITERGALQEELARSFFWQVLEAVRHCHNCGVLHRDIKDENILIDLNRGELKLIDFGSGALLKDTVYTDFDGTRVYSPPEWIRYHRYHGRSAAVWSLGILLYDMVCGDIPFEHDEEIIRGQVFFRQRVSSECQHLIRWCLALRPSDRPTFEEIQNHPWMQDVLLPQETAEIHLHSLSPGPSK
Procedure for BaF3 PIM1 cells: as §1, §2

On to `Cn1ncc(NC(=O)c2csc(-c3ccccn3)n2)c1[C@@H]1CC[C@@H](N)[C@H](F)CO1` [Example 326, N-(5-((2S,5R,6S)-5-amino-6-fluorooxepan-2-yl)-1-methyl-1H-pyrazol-4-yl)-2-(pyridin-2-yl)thiazole-4-carboxamide], for which the EC50 in assay [1] (Homo sapiens, MM1.S, 72 h) worked out at 0.436 µM. For the same compound, the Ki on PIM1 came out at 0.031 nM. Moreover, the IC50 in the assay with BaF3 PIM1 cells (setting [2]) was 132 nM; in the assay with BaF3 parental cells, 12.4 µM.

Take `Cn1ncc(NC(=O)c2nc(-c3c(F)cccc3F)sc2N)c1C1CC[C@@H](N)[C@@H](F)CO1` (stereo partly drawn) [Example 129, 5-amino-N-(5-((5R,6R)-5-amino-6-fluorooxepan-2-yl)-1-methyl-1H-pyrazol-4-yl)-2-(2,6-difluorophenyl)thiazole-4-carboxamide]: the EC50 in assay [1] (Homo sapiens, MM1.S, 72 h) worked out at 0.109 µM. Besides, the Ki on PIM1 is 0.006 nM. For the same compound, the IC50 came out at 24.7 nM with BaF3 PIM1 cells (setting [2]) and 6.9 µM with BaF3 parental cells.

As to `CC[C@@H]1CC(N)CC[C@H](c2c(NC(=O)c3nc(-c4c(F)cccc4F)sc3N)cnn2C)O1` (stereo partly drawn) [Example 112, 5-amino-N-(5-((2R,7R)-5-amino-7-ethyloxepan-2-yl)-1-methyl-1H-pyrazol-4-yl)-2-(2,6-difluorophenyl)thiazole-4-carboxamide], the EC50 in assay [1] (Homo sapiens, MM1.S, 72 h) worked out at 8.5 µM. Besides, on PIM1, the Ki was determined as 0.502 nM. In addition, the IC50 with BaF3 PIM1 cells (setting [2]) is 2100 nM; in the assay on BaF3 parental cells it was 6.9 µM.

Regarding `C[C@H](O)c1ccc(-c2nc(C(=O)Nc3cnn(C)c3[C@@H]3CC[C@@H](N)[C@H](F)CO3)cs2)c(F)c1F` (single isomer, unassigned) [Example 365], in assay [1] (Homo sapiens, MM1.S, 72 h), the EC50 stood at 0.348 µM. On PIM1, the Ki worked out at 0.069 nM. Besides, the concentration for half-maximal inhibition (IC50) with BaF3 PIM1 cells (setting [2]) amounted to 408 nM; in the assay with BaF3 parental cells, 15.9 µM.

With `CN(C)c1ccc(-c2nc(C(=O)Nc3cnn(C)c3[C@@H]3CC[C@@H](N)[C@H](F)CO3)cs2)cn1` [Example 385, N-[5-[(2S,5R,6S)-5-amino-6-fluoro-oxepan-2-yl]-1-methyl-pyrazol-4-yl]-2-[6-(dimethylamino)-3-pyridyl]thiazole-4-carboxamide], the EC50 in assay [1] (Homo sapiens, MM1.S, 72 h) turned out to be 1.2 µM. For the same compound, the Ki at PIM1 worked out at 0.2 nM. The IC50 amounted to 118 nM with BaF3 PIM1 cells (setting [2]) and 12 µM with BaF3 parental cells.

Regarding `Cn1ncc(NC(=O)c2csc(-c3c(F)ccc(C(F)F)c3F)n2)c1[C@@H]1CC[C@@H](N)[C@H](F)CO1` [Example 377, N-[5-[(2S,5R,6S)-5-amino-6-fluoro-oxepan-2-yl]-1-methyl-pyrazol-4-yl]-2-[3-(difluoromethyl)-2,6-difluoro-phenyl]thiazole-4-carboxamide], the EC50 in assay [1] (Homo sapiens, MM1.S, 72 h) was determined as 4.2 µM. The Ki at PIM1 was determined as 0.031 nM. The figures for the IC50 in the assay on BaF3 PIM1 cells (setting [2]) and in the assay with BaF3 parental cells were 68.6 nM and 9.9 µM, respectively.

For the compound `C[C@H]1O[C@@H](c2c(NC(=O)c3csc(-c4c(F)cccc4F)n3)cnn2C)C[C@@H](N)[C@]1(C)O` (single isomer, unassigned) [Example 341], the EC50 in assay [1] (Homo sapiens, MM1.S, 72 h) was 6.9 µM. Moreover, the Ki at PIM1 worked out at 0.003 nM. Also, the IC50 in the assay on BaF3 PIM1 cells (setting [2]) was 96.8 nM; in the assay with BaF3 parental cells, more than 25 µM.

Regarding `CO[C@@H]1CO[C@H](c2c(NC(=O)c3csc(-c4c(F)cc(C)cc4F)n3)cnn2C)CC[C@H]1N` [Example 355, N-(5-((2S,5R,6S)-5-amino-6-methoxyoxepan-2-yl)-1-methyl-1H-pyrazol-4-yl)-2-(2,6-difluoro-4-methylphenyl)thiazole-4-carboxamide], in assay [1] (Homo sapiens, MM1.S, 72 h), the EC50 came out at 1.6 µM. At PIM1, the Ki came out at 0.035 nM. The results for the IC50 with BaF3 PIM1 cells (setting [2]) and in the assay on BaF3 parental cells were 53.5 nM and 3.9 µM, respectively.

In the case of `CO[C@@H]1CO[C@H](c2c(NC(=O)c3csc(-c4c(F)cccc4F)n3)cnn2C)CC[C@H]1N` [Example 347, N-(5-((2S,5R,6S)-5-amino-6-methoxyoxepan-2-yl)-1-methyl-1H-pyrazol-4-yl)-2-(2,6-difluorophenyl)thiazole-4-carboxamide], the EC50 in assay [1] (Homo sapiens, MM1.S, 72 h) amounted to 3.3 µM. The Ki on PIM1 is 0.014 nM. Also, the IC50 came to 157 nM in the assay with BaF3 PIM1 cells (setting [2]) and 5 µM in the assay with BaF3 parental cells.

On to `Cn1ncc(NC(=O)c2csc(-c3n[nH]c4ccccc34)n2)c1[C@@H]1CC[C@@H](N)[C@H](F)CO1` [Example 381, N-(5-((2S,5R,6S)-5-amino-6-fluorooxepan-2-yl)-1-methyl-1H-pyrazol-4-yl)-2-(1H-indazol-3-yl)thiazole-4-carboxamide], for which the EC50 in assay [1] (Homo sapiens, MM1.S, 72 h) worked out at 0.64 µM. Besides, the Ki at PIM1 was 0.022 nM. Also, the IC50 in the assay with BaF3 PIM1 cells (setting [2]) came out at 79.4 nM; with BaF3 parental cells, 5.8 µM.

With `CC(C)C(=O)c1cc(F)c(-c2nc(C(=O)Nc3cnn(C)c3[C@@H]3CC[C@@H](N)[C@H](F)CO3)cs2)c(F)c1` [Example 367, N-(5-((2S,5R,6S)-5-amino-6-fluorooxepan-2-yl)-1-methyl-1H-pyrazol-4-yl)-2-(2,6-difluoro-4-isobutyrylphenyl)thiazole-4-carboxamide], the EC50 in assay [1] (Homo sapiens, MM1.S, 72 h) was found to be 5.4 µM. On PIM1, the Ki turned out to be 0.061 nM. Moreover, the IC50 worked out at 245 nM with BaF3 PIM1 cells (setting [2]) and 24 µM with BaF3 parental cells.

Take `Cn1ncc(NC(=O)c2nc(-c3c(F)cccc3F)sc2N)c1C1CC[C@H](N)[C@H](F)CO1` (stereo partly drawn) [Example 131, 5-amino-N-(5-((5S,6S)-5-amino-6-fluorooxepan-2-yl)-1-methyl-1H-pyrazol-4-yl)-2-(2,6-difluorophenyl)thiazole-4-carboxamide]: in assay [1] (Homo sapiens, MM1.S, 72 h), the EC50 worked out at 10 µM. The Ki at PIM1 is 0.27 nM. Moreover, the IC50 is 1500 nM in the assay on BaF3 PIM1 cells (setting [2]) and 6.8 µM in the assay on BaF3 parental cells.

As for `Cn1ncc(NC(=O)c2nc(-c3c(F)cccc3F)sc2N)c1C12CCC(O)C(CC1)O2` (single isomer, unassigned) [Example 109, 5-amino-2-(2,6-difluorophenyl)-N-[5-(2-hydroxy-8-oxabicyclo[3.2.1]octan-5-yl)-1-methyl-pyrazol-4-yl]thiazole-4-carboxamide], the EC50 in assay [1] worked out at 9.2 µM. Besides, on PIM1, the Ki was found to be 0.034 nM. The IC50 in the assay with BaF3 PIM1 cells (read-out: Prolif BaF3 PIM1 (IC50), BaF3 PIM1 cells, incubated overnight, CELL TITER GLO) is 115 nM; with BaF3 parental cells, 8.3 µM.

As to `Cn1ncc(NC(=O)c2nc(-c3c(F)cccc3Cl)sc2N)c1[C@@H]1CC[C@@H](N)[C@H](F)CO1` [Example 328, 5-amino-N-(5-((2S,5R,6S)-5-amino-6-fluorooxepan-2-yl)-1-methyl-1H-pyrazol-4-yl)-2-(2-chloro-6-fluorophenyl)thiazole-4-carboxamide], the EC50 in assay [1] (Homo sapiens, MM1.S, 72 h) was determined as 1.5 µM. In addition, the Ki on PIM1 worked out at 0.036 nM. Also, the IC50 worked out at 21.4 nM with BaF3 PIM1 cells (setting [2]) and 12.5 µM in the assay with BaF3 parental cells.

On to `Cn1ncc(NC(=O)c2csc(-c3cccnc3)n2)c1[C@@H]1CC[C@@H](N)[C@H](F)CO1` [Example 383, N-[5-[(2S,5R,6S)-5-amino-6-fluoro-oxepan-2-yl]-1-methyl-pyrazol-4-yl]-2-(3-pyridyl)thiazole-4-carboxamide], for which the EC50 in assay [1] (Homo sapiens, MM1.S, 72 h) came out at 5.7 µM. Besides, the Ki at PIM1 was determined as 0.991 nM. For the same compound, the half-maximal inhibitory concentration (IC50) in the assay on BaF3 PIM1 cells (setting [2]) amounted to 823 nM; in the assay with BaF3 parental cells it was 20.8 µM.

On to `Cn1ncc(NC(=O)c2csc(-c3c(F)cc([C@@H]4CCCO4)cc3F)n2)c1[C@@H]1CC[C@@H](N)[C@H](F)CO1` (single isomer, unassigned) [Example 371], for which, in assay [1] (Homo sapiens, MM1.S, 72 h), the EC50 worked out at 4.4 µM. Moreover, the inhibitory constant (Ki) at PIM1 is 0.057 nM. Also, the IC50 is 151 nM with BaF3 PIM1 cells (setting [2]) and more than 25 µM with BaF3 parental cells.

`Cn1ncc(NC(=O)c2csc(-c3c(F)cc(C4(F)COC4)cc3F)n2)c1[C@@H]1CC[C@@H](N)[C@H](F)CO1` [Example 340, N-(5-((2S,5R,6S)-5-amino-6-fluorooxepan-2-yl)-1-methyl-1H-pyrazol-4-yl)-2-(2,6-difluoro-4-(3-fluorooxetan-3-yl)phenyl)thiazole-4-carboxamide]: the EC50 in assay [1] (Homo sapiens, MM1.S, 72 h) was more than 6.2 µM. On PIM1, the Ki came out at 0.01 nM. In addition, the IC50 stood at 51.7 nM in the assay with BaF3 PIM1 cells (setting [2]) and 20.7 µM in the assay on BaF3 parental cells.

As to `Cc1sc(-c2c(F)cccc2F)nc1C(=O)Nc1cnn(C)c1[C@@H]1CC[C@@H](N)[C@H](F)CO1` [Example 370, N-[5-[(2S,5R,6S)-5-amino-6-fluoro-oxepan-2-yl]-1-methyl-pyrazol-4-yl]-2-(2,6-difluorophenyl)-5-methyl-thiazole-4-carboxamide], in assay [1] (Homo sapiens, MM1.S, 72 h), the EC50 stood at 1.8 µM. Moreover, the Ki on PIM1 was determined as 0.382 nM. The IC50 came to 675 nM in the assay with BaF3 PIM1 cells (setting [2]) and 6.4 µM in the assay on BaF3 parental cells.

For `C[C@@H]1O[C@@H](c2c(NC(=O)c3csc(-c4c(F)cccc4F)n3)cnn2C)C[C@H](N)[C@@]1(C)O` (single isomer, unassigned) [Example 342], the EC50 in assay [1] (Homo sapiens, MM1.S, 72 h) amounted to 21.6 µM. Moreover, the Ki at PIM1 came out at 2.3 nM. The values for the IC50 in the assay with BaF3 PIM1 cells (setting [2]) and in the assay on BaF3 parental cells were 12700 nM and 10 µM, respectively.

Take `CO[C@@H]1CO[C@H](c2c(NC(=O)c3csc(-c4ncccc4C)n3)cnn2C)CC[C@H]1N` [Example 348, N-(5-((2S,5R,6S)-5-amino-6-methoxyoxepan-2-yl)-1-methyl-1H-pyrazol-4-yl)-2-(3-methylpyridin-2-yl)thiazole-4-carboxamide]: the EC50 in assay [1] (Homo sapiens, MM1.S, 72 h) amounted to 1 µM. For the same compound, the Ki on PIM1 stood at 0.014 nM. The IC50 with BaF3 PIM1 cells (setting [2]) turned out to be 359 nM; with BaF3 parental cells it was 10.5 µM.

Turning to `Cn1ncc(NC(=O)c2csc(-c3c(F)ccc(S(C)(=O)=O)c3F)n2)c1[C@@H]1CC[C@@H](N)[C@H](F)CO1` [Example 360, N-[5-[(2S,5R,6S)-5-amino-6-fluoro-oxepan-2-yl]-1-methyl-pyrazol-4-yl]-2-(2,6-difluoro-3-methylsulfonyl-phenyl)thiazole-4-carboxamide], in assay [1] (Homo sapiens, MM1.S, 72 h), the EC50 was 9.4 µM. Moreover, the Ki at PIM1 is 1.85 nM. In addition, the IC50 was 15200 nM in the assay on BaF3 PIM1 cells (setting [2]) and 16.5 µM in the assay with BaF3 parental cells.

These data come from patent publication US9328106B2, “Cyclic ether pyrazol-4-yl-heterocyclyl-carboxamide compounds and methods of use” (Genentech, Inc., priority 2012, dated 2016).
